From patent publication US10966426B2, “Herbicidal compositions comprising phenylpyrimidines” (BASF SE, priority 2016, dated 2021)
Values joined by “and” are separate entries in the source; they are usually repeats but may differ in a detail not shown here. Equal values may be shown once.

Experiments:
Assay type in all cases: in vivo
Digitaria sanguinalis = assay: greenhouse post-emergence treatment, DIGSA; conditions: 20 DAT; for % activity: DIGSA
Method: (§1) The culture containers used were plastic pots containing loamy sand with approximately 3.0% of humus as substrate. The seeds of the test plants were sown separately for each species.
(§2) To this end, the test plants were either sown directly, and grown in the same containers, or they were first grown separately as seedlings and transplanted into the test containers a few days prior to treatment.
(§3) Depending on the species, the plants were kept at 10-25° C. and 20-35° C., respectively.
(§4) The test period extended over 2 to 4 weeks. During this time, the plants were tended and their response to the individual treatments was evaluated.
(§5) Evaluation was carried out using a scale from 0 to 100. 100 means no emergence of the plants, or complete destruction of at least the above-ground parts, and 0 means no damage or normal course of growth. A good herbicidal activity is given at values of at least 70, and very good herbicidal activity is given at values of at least 85.
(§6) In the examples, the solvent used was water.
(§7) In the examples below, using the method of S. R. Colby (1967) “Calculating synergistic and antagonistic responses of herbicide combinations”, Weeds 15, p. […] E=X+Y−(X·Y/100) where X=effect in percent using herbicide A at an application rate a; • Y=effect in percent using herbicide B at application rate b; • E=expected effect (in %) of herbicide A+herbicide B at application rates a+b.

Brachiaria decumbens = assay: greenhouse post-emergence treatment, BRADC; conditions: 20 DAT; for % activity: BRADC
Method: as §1
(§8) For the post-emergence treatment, the test plants were grown to a plant height of from 3 to 15 cm, depending on the plant habit, and only then treated with the active compounds which had been suspended or emulsified in water. To this end, the test plants were either sown directly, and grown in the same containers, or they were first grown separately as seedlings and transplanted into the test containers a few days prior to treatment.
as §3, §4, §5
(§9) The respective stated components A and B, and if appropriate, C were formulated as a 10% by weight strength emulsion concentrate and, with addition of the amount of solvent system, introduced into the spray liquor used for applying the active compound. In the examples, the solvent used was water.
(§10) In the examples below, using the method of S. R. Colby (1967) “Calculating synergistic and antagonistic responses of herbicide combinations”, Weeds 15, p. 22ff., the value E, which is expected if the activity of the individual active compounds is only additive, was calculated. E=X+Y−(X·Y/100) where X=effect in percent using herbicide A at an application rate a; • Y=effect in percent using herbicide B at application rate b; • E=expected effect (in %) of herbicide A+herbicide B at application rates a+b.

Bromus sterilis = assay: greenhouse post-emergence treatment, BROST; conditions: 20 DAT; for % activity: BROST
Method: as §1, §2, §3, §4, §5, §6, §7

Lolium multiflorum = assay: greenhouse post-emergence treatment, LOLMU; conditions: 20 DAT; for % activity: LOLMU
Method: as §1, §2, §3, §4, §5, §6, §7

Papaver rhoeas = assay: greenhouse post-emergence treatment, PAPRH; conditions: 20 DAT
Method: as §1, §8, §3, §4, §5, §9, §10

Galium aparine = assay: greenhouse post-emergence treatment, GALAP; conditions: GALAP, 20 DAT
Method: as §1, §8, §3, §4, §5, §9, §10

Setaria viridis = assay: greenhouse post-emergence treatment, SETVI; conditions: 20 DAT; for % activity: SETVI
Method: as §1, §2, §3, §4, §5, §6, §7

Matricaria chamomilla = assay: greenhouse post-emergence treatment, MATCH; conditions: MATCH, 20 DAT
Method: as §1, §8, §3, §4, §5, §9, §10

Ambrosia elatior = assay: greenhouse post-emergence treatment, AMBEL; conditions: 20 DAT
Method: as §1, §8, §3, §4, §5, §9, §10

Avena fatua = assay: greenhouse post-emergence treatment, AVEFA; conditions: Avena fatua, 480 h, 20 DAT
Method: as §1, §2, §3, §4, §5, §6, §7

Alopecurus myosuroides = assay: greenhouse post-emergence treatment, ALOMY; conditions: Alopecurus myosuroides, 480 h, 20 DAT, ALOMY
Method: as §1, §2, §3, §4, §5, §6, §7

[1] = solo pyroxsulam (SC 30 g/l) 1.875 gai/ha
[2] = solo pyroxsulam (SC 30 g/l) 3.75 gai/ha
[3] = solo pyroxsulam (SC 30 g/l) 7.5 gai/ha

In the case of `COc1nc(C)nc(NC(=O)NS(=O)(=O)c2cc(I)ccc2C(=O)O)n1` [iodosulfuron], the inhibition at 1.25 g/ha (Digitaria sanguinalis; Digitaria sanguinalis, 480 h, iodosulfuron solo 1.25 gai/ha) is reported as 0%, the inhibition at […] (Digitaria sanguinalis; Digitaria sanguinalis, 480 h, iodosulfuron solo 2.5 gai/ha) is reported as 20% and the inhibition at 5 g/ha (Digitaria sanguinalis; Digitaria sanguinalis, 480 h, iodosulfuron solo 5 gai/ha) is reported as 50%. It also gave an inhibition at […] (Brachiaria decumbens; Urochloa decumbens, 480 h, iodosulfuron solo 2.5 gai/ha) of 20%, an inhibition at 5 g/ha (Brachiaria decumbens; Urochloa decumbens, 480 h, iodosulfuron solo 5 gai/ha) of 30% and an inhibition at 1.25 g/ha (Bromus sterilis; Bromus sterilis, 480 h, iodosulfuron solo 1.25 gai/ha) of 0%. The inhibition at […] (Bromus sterilis; Bromus sterilis, 480 h, iodosulfuron solo 2.5 gai/ha) was 0% and the inhibition at 5 g/ha (Bromus sterilis; Bromus sterilis, 480 h, iodosulfuron solo 5 gai/ha) was 0%.

`COc1cc(OC)n2nc(NS(=O)(=O)c3c(C(F)(F)F)ccnc3OC)nc2n1` [pyroxsulam] was tested, and the “% activity” value (Lolium multiflorum; pyroxsulam solo 1.875 gai/ha) was 60% and 80%, the “% activity” value (Lolium multiflorum; pyroxsulam solo 3.75 gai/ha) was 65% and the “% activity” value (Lolium multiflorum; pyroxsulam solo 7.5 gai/ha) was 80%. For the same compound, the “% activity” value (Papaver rhoeas; PAPRH, solo pyroxsulam (SC 30 g/l) 1.875 gai/ha) was 0%, the “% activity” value (Papaver rhoeas; PAPRH, solo pyroxsulam (SC 30 g/l) 3.75 gai/ha) was 0% and the “% activity” value (Papaver rhoeas; PAPRH, solo pyroxsulam (SC 30 g/l) 7.5 gai/ha) was 30%. The “% activity” value (Papaver rhoeas; PAPRH, solo pyroxsulam (SC 30 g/l) 15 gai/ha) was 70%, the “% activity” value (Papaver rhoeas; pyroxsulam solo 1.875 gai/ha, PAPRH) was 0% and the “% activity” value (Papaver rhoeas; pyroxsulam solo 3.75 gai/ha, PAPRH) was 0%. The “% activity” value (Papaver rhoeas; pyroxsulam solo 7.5 gai/ha, PAPRH) was 30%, the “% activity” value (Papaver rhoeas; pyroxsulam solo 15 gai/ha, PAPRH) was 70% and the “% activity” value (Galium aparine; [1]) was 60%. For the same compound, the “% activity” value (Galium aparine; [2]) was 65%, the “% activity” value (Galium aparine; [3]) was 75% and the “% activity” value (Galium aparine; pyroxsulam solo 1.875 gai/ha) was 60%. For the same compound, the “% activity” value (Galium aparine; pyroxsulam solo 3.75 gai/ha) was 65%, the “% activity” value (Galium aparine; pyroxsulam solo 7.5 gai/ha) was 75% and the “% activity” value (Galium aparine; pyroxsulam solo 15 gai/ha) was 90%. For the same compound, the “% activity” value (Digitaria sanguinalis; [3]) was 80%, the “% activity” value (Digitaria sanguinalis; pyroxsulam solo 1.875 gai/ha) was 65% and the “% activity” value (Digitaria sanguinalis; pyroxsulam solo 3.75 gai/ha) was 75%. The “% activity” value (Digitaria sanguinalis; pyroxsulam solo 7.5 gai/ha) was 80%, the “% activity” value (Setaria viridis; [1]) was 75% and the “% activity” value (Setaria viridis; pyroxsulam solo 1.875 gai/ha) was 75%. The “% activity” value (Brachiaria decumbens; [1]) was 20%, the “% activity” value (Brachiaria decumbens; pyroxsulam solo 1.875 gai/ha) was 20% and the “% activity” value (Brachiaria decumbens; pyroxsulam solo 3.75 gai/ha) was 75%. The “% activity” value (Bromus sterilis; [1]) was 60%, the “% activity” value (Bromus sterilis; pyroxsulam solo 1.875 gai/ha) was 60% and the “% activity” value (Bromus sterilis; pyroxsulam solo 3.75 gai/ha) was 70%. The “% activity” value (Bromus sterilis; pyroxsulam solo 7.5 gai/ha) was 75%, the “% activity” value (Matricaria chamomilla; [1]) was 30% and the “% activity” value (Matricaria chamomilla; [2]) was 60%. For the same compound, the “% activity” value (Matricaria chamomilla; solo pyroxsulam (SC 30 g/l) 15 gai/ha) was 80%, the “% activity” value (Matricaria chamomilla; pyroxsulam solo 1.875 gai/ha) was 30% and the “% activity” value (Matricaria chamomilla; pyroxsulam solo 3.75 gai/ha) was 60%. For the same compound, the “% activity” value (Matricaria chamomilla; pyroxsulam solo 15 gai/ha) was 80% and the “% activity” value (Ambrosia elatior; pyroxsulam solo 1.875 gai/ha, AMBEL) was 70%.

Compound `CCS(=O)(=O)c1nc2ccccn2c1S(=O)(=O)NC(=O)Nc1nc(OC)cc(OC)n1` [sulfosulfuron] has an inhibition at […] (Lolium multiflorum; Lolium multiflorum, 480 h, sulfosulfuron solo 1.5 gai/ha) of 0%, an inhibition at 3 g/ha (Lolium multiflorum; Lolium multiflorum, 480 h, sulfosulfuron solo 3 gai/ha) of 0% and an inhibition at 6 g/ha (Lolium multiflorum; Lolium multiflorum, 480 h, sulfosulfuron solo 6 gai/ha) of 10%. It also gave an inhibition at 12 g/ha (Lolium multiflorum; Lolium multiflorum, 480 h, sulfosulfuron solo 12 gai/ha) of 35%, an inhibition at […] (Papaver rhoeas; Papaver rhoeas, 480 h, sulfosulfuron solo 1.5 gai/ha) of 25% and an inhibition at 3 g/ha (Papaver rhoeas; Papaver rhoeas, 480 h, sulfosulfuron solo 3 gai/ha) of 80%. It also gave a pest or weed control at […] (Papaver rhoeas; Papaver rhoeas, 480 h, PAPRH, solo sulfosulfuron (WG 80%) 1.5 gai/ha) of 25%, a pest or weed control at […] (Galium aparine; Galium aparine, 480 h, solo sulfosulfuron (WG 80%) 1.5 gai/ha) of 65% and a pest or weed control at 3 g/ha (Galium aparine; Galium aparine, 480 h, solo sulfosulfuron (WG 80%) 3 gai/ha) of 85%. The inhibition at […] (Digitaria sanguinalis; Digitaria sanguinalis, 480 h, sulfosulfuron solo 1.5 gai/ha) was 0%, the inhibition at 3 g/ha (Digitaria sanguinalis; Digitaria sanguinalis, 480 h, sulfosulfuron solo 3 gai/ha) was 20% and the inhibition at 12 g/ha (Digitaria sanguinalis; Digitaria sanguinalis, 480 h, sulfosulfuron solo 12 gai/ha) was 65%. For the same compound, the inhibition at […] (Setaria viridis; Setaria viridis, 480 h, sulfosulfuron solo 1.5 gai/ha) was 50%, the inhibition at 6 g/ha (Setaria viridis; Setaria viridis, 480 h, sulfosulfuron solo 6 gai/ha) was 65% and the inhibition at 12 g/ha (Setaria viridis; Setaria viridis, 480 h, sulfosulfuron solo 12 gai/ha) was 75%. For the same compound, the inhibition at […] (Brachiaria decumbens; Urochloa decumbens, 480 h, sulfosulfuron solo 1.5 gai/ha) was 20%, the inhibition at 12 g/ha (Brachiaria decumbens; Urochloa decumbens, 480 h, sulfosulfuron solo 12 gai/ha) was 80% and the inhibition at […] (Avena fatua; sulfosulfuron solo 1.5 gai/ha) was 0%. For the same compound, the inhibition at 3 g/ha (Avena fatua; sulfosulfuron solo 3 gai/ha) was 0%, the inhibition at […] (Bromus sterilis; Bromus sterilis, 480 h, sulfosulfuron solo 1.5 gai/ha) was 0% and the inhibition at 3 g/ha (Bromus sterilis; Bromus sterilis, 480 h, sulfosulfuron solo 3 gai/ha) was 50%. For the same compound, the inhibition at 12 g/ha (Bromus sterilis; Bromus sterilis, 480 h, sulfosulfuron solo 12 gai/ha) was 70% and the inhibition at […] (Ambrosia elatior; Ambrosia artemisiifolia, 480 h, sulfosulfuron solo 1.5 gai/ha) was 70%.

`CCc1cc(C)cc(CC)c1-c1c(OC(=O)C(C)(C)C)n2n(c1=O)CCOCC2` [pinoxaden] was tested, and the pest or weed control at […] (Avena fatua; solo, EC 50 g/l, AVEFA, 7.5 gai/ha) was 33%, the inhibition at […] (Alopecurus myosuroides; pinoxaden solo 7.5 gai/ha) was 75% and the inhibition at 60 g/ha (Alopecurus myosuroides; pinoxaden solo 60 gai/ha) was 94%. The pest or weed control at […] (Alopecurus myosuroides; solo, EC 50 g/l, 7.5 gai/ha) was 48%.
